Reference: PMC8288134, “Synthesis, potential antitumor activity, cell cycle analysis, and multitarget mechanisms of novel hydrazones incorporating a 4-methylsulfonylbenzene scaffold: a molecular docking study” (Journal of Enzyme Inhibition and Medicinal Chemistry, 2021)

Columns and labels:
SK-OV-3 = test: NCI antitumor screen (SRB); format: cell-based; conditions: Homo sapiens, one dose 10 µM, read-out: Growth inhibition percentage (GI%)
HT29 = test: NCI antitumor screen (SRB); format: cell-based; conditions: Homo sapiens, HT-29, one dose 10 µM, read-out: Growth inhibition percentage (GI%)
M14 = test: NCI antitumor screen (SRB); format: cell-based; conditions: Homo sapiens, one dose 10 µM, read-out: Growth inhibition percentage (GI%)
MDA-MB-468 = test: NCI antitumor screen (SRB); format: cell-based; conditions: Homo sapiens, one dose 10 µM, read-out: Growth inhibition percentage (GI%)
SNB-19 = test: NCI antitumor screen (SRB); format: cell-based; conditions: Homo sapiens, one dose 10 µM, read-out: Growth inhibition percentage (GI%)
UO-31 = test: NCI antitumor screen (SRB); format: cell-based, human; conditions: Homo sapiens, UO-31, UO-31; one dose 10 µM; read-out: Growth inhibition percentage (GI%)
HS 578 T = test: NCI antitumor screen (SRB); format: cell-based; conditions: Homo sapiens, one dose 10 µM, read-out: Growth inhibition percentage (GI%)
NCI-H226 = test: NCI antitumor screen (SRB); format: cell-based; conditions: Homo sapiens, one dose 10 µM, read-out: Growth inhibition percentage (GI%)
COLO 205 = test: NCI antitumor screen (SRB); format: cell-based; conditions: Homo sapiens, one dose 10 µM, read-out: Growth inhibition percentage (GI%)
UACC-257 = test: NCI antitumor screen (SRB); format: cell-based, human; conditions: Homo sapiens, UACC-257, UACC-257; one dose 10 µM; read-out: Growth inhibition percentage (GI%)
MOLT-4 = test: NCI antitumor screen (SRB); format: cell-based; conditions: Homo sapiens, one dose 10 µM, read-out: Growth inhibition percentage (GI%)
[1] = test system: full panel of 59 cancer cell lines; test: NCI antitumor screen, full panel; conditions: one dose 10 µM, mean over cell lines
CAKI-1 = test: NCI antitumor screen (SRB); format: cell-based; conditions: Homo sapiens, one dose 10 µM, read-out: Growth inhibition percentage (GI%)
MALME-3M = test: NCI antitumor screen (SRB); format: cell-based; conditions: Homo sapiens, one dose 10 µM, read-out: Growth inhibition percentage (GI%)
CCRF-CEM = test: NCI antitumor screen (SRB); format: cell-based; conditions: Homo sapiens, one dose 10 µM, read-out: Growth inhibition percentage (GI%)
KM12 = test: NCI antitumor screen (SRB); format: cell-based; conditions: Homo sapiens, one dose 10 µM, read-out: Growth inhibition percentage (GI%)
HL-60(TB) = test: cells; format: cell-based, human; conditions: Homo sapiens, HL-60, HL-60(TB); one dose 10 µM; read-out: Growth inhibition percentage (GI%)
IGROV1 = test: NCI antitumor screen (SRB); format: cell-based; conditions: Homo sapiens, IGROV-1, one dose 10 µM, read-out: Growth inhibition percentage (GI%)
ACHN = test: NCI antitumor screen (SRB); format: cell-based; conditions: Homo sapiens, one dose 10 µM, read-out: Growth inhibition percentage (GI%)
EKVX = test: NCI antitumor screen (SRB); format: cell-based; conditions: Homo sapiens, one dose 10 µM, read-out: Growth inhibition percentage (GI%)
NCI-H23 = test: NCI antitumor screen (SRB); format: cell-based; conditions: Homo sapiens, one dose 10 µM, read-out: Growth inhibition percentage (GI%)
SR = test: NCI antitumor screen (SRB); format: cell-based; conditions: Homo sapiens, one dose 10 µM, read-out: Growth inhibition percentage (GI%)
HCT-15 = test: NCI antitumor screen (SRB); format: cell-based; conditions: Homo sapiens, one dose 10 µM, read-out: Growth inhibition percentage (GI%)
HCT-116 = test: NCI antitumor screen (SRB); format: cell-based; conditions: Homo sapiens, read-out: Growth inhibition percentage (GI%)
PC-3 = test: NCI antitumor screen (SRB); format: cell-based; conditions: Homo sapiens, one dose 10 µM, read-out: Growth inhibition percentage (GI%)
A549/ATCC = test: NCI antitumor screen (SRB); format: cell-based; conditions: Homo sapiens, one dose 10 µM, read-out: Growth inhibition percentage (GI%)
OVCAR-3 = test: NCI antitumor screen (SRB); format: cell-based; conditions: Homo sapiens, one dose 10 µM, read-out: Growth inhibition percentage (GI%)
NCI-H460 = test: NCI antitumor screen (SRB); format: cell-based; conditions: Homo sapiens, one dose 10 µM, read-out: Growth inhibition percentage (GI%)
BT-549 = test: NCI antitumor screen (SRB); format: cell-based; conditions: Homo sapiens, one dose 10 µM, read-out: Growth inhibition percentage (GI%)
TK-10 = test: NCI antitumor screen (SRB); format: cell-based; conditions: Homo sapiens, one dose 10 µM, read-out: Growth inhibition percentage (GI%)
PRMI-8226 = test: NCI antitumor screen (SRB); format: cell-based; conditions: Homo sapiens, one dose 10 µM, read-out: Growth inhibition percentage (GI%)
SK-MEL-28 = test: NCI antitumor screen (SRB); format: cell-based, human; conditions: Homo sapiens, SK-MEL-28, SK-MEL-28; one dose 10 µM; read-out: Growth inhibition percentage (GI%)
OVCAR-4 = test: NCI antitumor screen (SRB); format: cell-based; conditions: Homo sapiens, one dose 10 µM, read-out: Growth inhibition percentage (GI%)
U251 = test: NCI antitumor screen (SRB); format: cell-based; conditions: Homo sapiens, U-251, one dose 10 µM, read-out: Growth inhibition percentage (GI%)
MCF7 = test: NCI antitumor screen (SRB); format: cell-based; conditions: Homo sapiens, one dose 10 µM, read-out: Growth inhibition percentage (GI%)
A498 = test: NCI antitumor screen (SRB); format: cell-based; conditions: Homo sapiens, one dose 10 µM, read-out: Growth inhibition percentage (GI%)
DU-145 = test: NCI antitumor screen (SRB); format: cell-based; conditions: Homo sapiens, one dose 10 µM, read-out: Growth inhibition percentage (GI%)
MDA-MB-231/ATCC = test: NCI antitumor screen (SRB); format: cell-based; conditions: Homo sapiens, one dose 10 µM, read-out: Growth inhibition percentage (GI%)
SNB-75 = test: NCI antitumor screen (SRB); format: cell-based; conditions: Homo sapiens, one dose 10 µM, read-out: Growth inhibition percentage (GI%)
UACC-62 = test: NCI antitumor screen (SRB); format: cell-based; conditions: Homo sapiens, one dose 10 µM, read-out: Growth inhibition percentage (GI%)
OVCAR-5 = test: NCI antitumor screen (SRB); format: cell-based; conditions: Homo sapiens, one dose 10 µM, read-out: Growth inhibition percentage (GI%)
T-47D = test: NCI antitumor screen (SRB); format: cell-based; conditions: Homo sapiens, T47D, one dose 10 µM, read-out: Growth inhibition percentage (GI%)
[2] = test system: ovarian cancer tumour cell lines; test: NCI antitumor screen, subpanel; format: cell-based; conditions: 10 µM
RXF 393 = test: NCI antitumor screen (SRB); format: cell-based; conditions: Homo sapiens, one dose 10 µM, read-out: Growth inhibition percentage (GI%)
786-0 = test: NCI antitumor screen (SRB); format: cell-based; conditions: Homo sapiens, one dose 10 µM, read-out: Growth inhibition percentage (GI%)
SF-539 = test: NCI antitumor screen (SRB); format: cell-based; conditions: Homo sapiens, one dose 10 µM, read-out: Growth inhibition percentage (GI%)
HCC-2998 = test: NCI antitumor screen (SRB); format: cell-based; conditions: Homo sapiens, one dose 10 µM, read-out: Growth inhibition percentage (GI%)
MDA-MB-435 = test: NCI antitumor screen (SRB); format: cell-based; conditions: Homo sapiens, one dose 10 µM, read-out: Growth inhibition percentage (GI%)
OVCAR-8 = test: NCI antitumor screen (SRB); format: cell-based; conditions: Homo sapiens, one dose 10 µM, read-out: Growth inhibition percentage (GI%)
SW-620 = test: NCI antitumor screen (SRB); format: cell-based; conditions: Homo sapiens, one dose 10 µM, read-out: Growth inhibition percentage (GI%)
LOX IMVI = test: NCI antitumor screen (SRB); format: cell-based; conditions: Homo sapiens, one dose 10 µM, read-out: Growth inhibition percentage (GI%)
SF-295 = test: NCI antitumor screen (SRB); format: cell-based; conditions: Homo sapiens, one dose 10 µM, read-out: Growth inhibition percentage (GI%)
NCI/ADR-RES = test: NCI antitumor screen (SRB); format: cell-based; conditions: Homo sapiens, one dose 10 µM, read-out: Growth inhibition percentage (GI%)
SN12C = test: NCI antitumor screen (SRB); format: cell-based; conditions: Homo sapiens, one dose 10 µM, read-out: Growth inhibition percentage (GI%)
SF-268 = test: NCI antitumor screen (SRB); format: cell-based; conditions: Homo sapiens, one dose 10 µM, read-out: Growth inhibition percentage (GI%)

Compound: Cc1ccc(NC(=O)c2ccc(CN3CCN(C)CC3)cc2)cc1Nc1nccc(-c2cccnc2)n1 [Imatinib, imatinib, reference compound]
- inhibition at 10 µM (SK-OV-3): < 10%
- inhibition at 10 µM (HT29): 47.1%
- inhibition at 10 µM (M14): < 10%
- inhibition at 10 µM (MDA-MB-468): 29.1%
- inhibition at 10 µM (SNB-19): < 10%
- inhibition at 10 µM (UO-31): < 10%
- inhibition at 10 µM (HS 578 T): < 10%
- inhibition at 10 µM (NCI-H226): 10.6%
- inhibition at 10 µM (COLO 205): < 10%
- inhibition at 10 µM (UACC-257): < 10%
- inhibition at 10 µM (MOLT-4): 18%
- percentage mean growth (MG) [1]: 92.62%
- inhibition at 10 µM (CAKI-1): < 10%
- inhibition at 10 µM (MALME-3M): < 10%
- inhibition at 10 µM (CCRF-CEM): < 10%
- inhibition at 10 µM (KM12): < 10%
- inhibition at 10 µM (HL-60(TB)): < 10%
- inhibition at 10 µM (IGROV1): < 10%
- inhibition at 10 µM (ACHN): < 10%
- inhibition at 10 µM (EKVX): 15.7%
- inhibition at 10 µM (NCI-H23): 17.1%
- inhibition at 10 µM (SR): 14.6%
- inhibition at 10 µM (HCT-15): 11.5%
- inhibition at 10 µM (HCT-116): 18.6%
- inhibition at 10 µM (PC-3): 10.6%
- inhibition at 10 µM (A549/ATCC): < 10%
- inhibition at 10 µM (OVCAR-3): < 10%
- inhibition at 10 µM (NCI-H460): < 10%
- inhibition at 10 µM (BT-549): < 10%
- inhibition at 10 µM (TK-10): < 10%
- inhibition at 10 µM (PRMI-8226): 12.6%
- inhibition at 10 µM (SK-MEL-28): < 10%
- inhibition at 10 µM (OVCAR-4): < 10%
- inhibition at 10 µM (U251): 10.6%
- inhibition at 10 µM (MCF7): < 10%
- inhibition at 10 µM (A498): 13.7%
- inhibition at 10 µM (DU-145): 14.4%
- inhibition at 10 µM (MDA-MB-231/ATCC): 11.2%
- inhibition at 10 µM (SNB-75): < 10%
- inhibition at 10 µM (UACC-62): < 10%
- inhibition at 10 µM (OVCAR-5): < 10%
- inhibition at 10 µM (T-47D): 18.6%
- GI (range over subpanel cell lines) [2]: < 10.0%
- inhibition at 10 µM (RXF 393): < 10%
- inhibition at 10 µM (786-0): < 10%
- inhibition at 10 µM (SF-539): 24.5%
- inhibition at 10 µM (HCC-2998): < 10%
- inhibition at 10 µM (MDA-MB-435): < 10%
- inhibition at 10 µM (OVCAR-8): < 10%
- inhibition at 10 µM (SW-620): < 10%
- inhibition at 10 µM (LOX IMVI): 11.6%
- inhibition at 10 µM (SF-295): 15.1%
- inhibition at 10 µM (NCI/ADR-RES): < 10%
- inhibition at 10 µM (SN12C): < 10%
- inhibition at 10 µM (SF-268): < 10%
